# Laboratory results as given in patent publication US7429482B2, “Screening tools for discovery of novel anabolic agents” (United States of America as represented by the Department …, priority 2005, dated 2008).
# Assays:
# [1] = test system: ARE reporter gene (MMTV hormone response element); experiment: ARE (MMTV hormone response element) luciferase reporter in C2C12 and C2C12.AR cells; format: cell-based
# Source text: The reporter genes pMAF3.1, pMAF2.4, pMAF948, pMAF400, and pMAF400-241 express firefly luciferase under the control of promoter regions of the human MAFbx gene and are described in Example 1. The rARC562G vector, encoding rat AR with a C562->G mutation in the first zinc binding module that disrupts binding of AR to DNA was described by Palvimo et al. (Mol Endocrinol 7: 1399-1407, 1993) pAR.4RKM (expressing AR with 4 R/K->M mutations in the nuclear localization sequence that is unable to enter the nucleus) and pAR.ABC (lacking the ligand binding domain) were described by Zhou et al. (J Biol Chem 269: 13115-13123, 1994). The pBabe.puro retroviral backbone described by Morgenstern and Land (Nucleic Acids Res 18: 3587-3596, 1990) was modified by introduction of a Not1 site. […]
# Cells were seeded into wells of 24-well plates (5×10^5 cells/well) then maintained overnight in DMEM with 10% CDS-FBS. […] Cells were maintained for an additional 24 hours, at which time both firefly and renilla luciferase activity were determined using the Dual Luciferase Assay (Promega, Madison, Wis.) and a Berthold 96-well plate luminometer. […]
# To determine whether C2C12 cells expressed AR, total RNA from these cells was extracted and analyzed by real-time PCR and compared to levels of AR mRNA in gastrocnemius muscle from male mice. […]
# human IGF-1 promoter = experiment: Human IGF-1 promoter luciferase reporter assay in HepG2 cells; format: cell-based
# Source text: pREP4.hAR, expressing full length human AR, and pCMV.Sport.β-Gal, expressing β-galactosidase under a CMV promoter, were as described (Zhao et al., Steroids 69: 357-366, 2004). pcDNA5.rGR, expressing rat glucocorticoid receptor, was provided by Dr. Diane Robins (University of Michigan). The rARC562G vector expressing rat AR with a C562G mutation in the DBD, which results in a loss of DNA binding. The IGF-1 reporter genes pOLuc.1630, pOLuc1300, pOLuc926, pOLuc 320 were provided by Dr. Peter Rotwein (Oregon Health & Science University). These reporters expressed firefly luciferase under the control of 320 to 1630 bases upstream of the transcriptional start site of the human IGF-1 promoter as described in (Kim et al., Mol Endocrinol 5: 1964-1972, 1991). pEGX 4T-1 hAR2, expressing GST fused to the N-terminus of AR DNA-binding domain, was provided by Robert J. Matusik, Ph.D. (Vanderbuilt University Medical Center). pRL-CMV expressing Renilla luciferase was from Promega (Madison, Wis.).
# HepG2 cells (ATCC, Bethesda, Md.) were maintained in Dulbecco's modified Eagle's medium (DMEM), supplemented with 10% fetal bovine serum (FBS) and antibiotics (penicillin 100 U/ml, streptomycin 100 μg/ml). Cells were seeded at 5×10^4 cells/per well into wells of 24-well plates containing DMEM supplemented with 10% charcoal-dextran stripped FBS (CDS-FBS). The next day, cells were transfected with a total of 300 ng DNA per well using Lipofectamine Plus (Invitrogen) with plasmids as indicated in the figure legends. Three hours after transfection, cells were covered with DMEM supplemented with 10% CDS-FBS and either hormone dissolved in ethanol, or ethanol, as indicated in the figures. […] After overnight incubation, activities of firefly and Renilla luciferase were determined using the Dual Luciferase Assay system (Promega).
# Reporter plasmids expressing firefly luciferase under the control of upstream regions of the IGF-1 promoter were constructed by PCR amplification of segments of interest using primers shown in Table 2, using pOLuc-1630 as a template. The location of each amplified fragment is relative to the transcriptional start site. PCR amplification was conduced using a high fidelity Taq polymerase (Pfx, Invitrogen). PCR products were cloned into pCR2.1-TOPO TA (Invitrogen) and the sequences of the inserts were verified. Inserts were excised with Kpn I and Xho I, and were subcloned into pGL3-Promoter (Promega) at these same sites. PGL3-Promoter expresses firefly luciferase under the control of a minimal promoter.
# [2] = HepG2 + AR, increasing doses of testosterone
# [3] = HepG2 + AR, testosterone (FIG. 17)
structure (smiles),measurement,setting,value
C[C@]12CC[C@H]3[C@@H](CCC4=CC(=O)CC[C@@]43C)[C@@H]1CC[C@@H]2O [testosterone],luciferase expression by ARE-Luc reporter,[1]; C2C12.AR cells (human AR),marked increase
same,increase in luciferase expression over baseline,"[1]; wild-type C2C12 cells, MMTV hormone response element reporter",about 2 fold
same,activation of the upstream promoter of the human IGF-1 gene,"human IGF-1 promoter; Hep G2 cells, FIG. 18",activated
same,"dose at which induction of luciferase expression begins, pGL3-230 (ARE1)",human IGF-1 promoter; HepG2 + AR,0.25 nM
same,induction of pGL3-32 at the lowest concentration tested,"human IGF-1 promoter; HepG2 + AR, 0.05 nM testosterone",~10 fold
same,"maximal induction and sensitivity, pGL3-13A (ARE2)",human IGF-1 promoter; [2],intermediate
same,"plateau of induction, pGL3-32 (both AREs)",human IGF-1 promoter; [2],25 fold
same,"plateau of induction, pGL3-230 (ARE1)",human IGF-1 promoter; [2],approximately 8 fold
same,"increase in luciferase expression, construct containing ARE2 (pGL3-13A)","human IGF-1 promoter; HepG2 + AR, testosterone",more than 20 fold
same,"increase in luciferase expression, reporters including ARE1 (pGL3-230, pGL3-22)","human IGF-1 promoter; HepG2 + AR, testosterone",more than 5 fold
same,induction of reporter containing both ARE1 and ARE2 (pGL3-32),"human IGF-1 promoter; HepG2 + AR, testosterone",greatest induction
same,responsiveness of reporter with 100 bases downstream of ARE2 (pGL3-25a),"human IGF-1 promoter; HepG2 + AR, testosterone",Little androgen responsiveness
same,activation of reporter p3-13a (ARE2),human IGF-1 promoter; [3],approximately 20 fold
same,activation of reporter p3-32 (both AREs),human IGF-1 promoter; [3],~30 fold
same,induction of luciferase expression with DBD mutant AR (AR-C562G),"human IGF-1 promoter; HepG2, pGL3-22, pGL3-13A, pGL3-32, testosterone 50 nM",virtually abolished
